Laboratory results taken from patent US20240366589A1, “NHE3-BINDING COMPOUNDS AND METHODS FOR INHIBITING PHOSPHATE TRANSPORT” (Ardelyx, Inc., priority 2013, published 2024).

How the values were obtained:
Rat NHE3 = target: T1, Rat NHE3 (Rattus norvegicus, UniProt P26433); assay: Cell-based NHE3 activity under prompt conditions (OK cells, BCECF pH recovery), rat NHE3; details: prompt conditions
T1 construct: expressed in transfected cells; host or cells: Opossum kidney (OK) cells (ATCC), electroporation
T1 sequence (P26433 29-831): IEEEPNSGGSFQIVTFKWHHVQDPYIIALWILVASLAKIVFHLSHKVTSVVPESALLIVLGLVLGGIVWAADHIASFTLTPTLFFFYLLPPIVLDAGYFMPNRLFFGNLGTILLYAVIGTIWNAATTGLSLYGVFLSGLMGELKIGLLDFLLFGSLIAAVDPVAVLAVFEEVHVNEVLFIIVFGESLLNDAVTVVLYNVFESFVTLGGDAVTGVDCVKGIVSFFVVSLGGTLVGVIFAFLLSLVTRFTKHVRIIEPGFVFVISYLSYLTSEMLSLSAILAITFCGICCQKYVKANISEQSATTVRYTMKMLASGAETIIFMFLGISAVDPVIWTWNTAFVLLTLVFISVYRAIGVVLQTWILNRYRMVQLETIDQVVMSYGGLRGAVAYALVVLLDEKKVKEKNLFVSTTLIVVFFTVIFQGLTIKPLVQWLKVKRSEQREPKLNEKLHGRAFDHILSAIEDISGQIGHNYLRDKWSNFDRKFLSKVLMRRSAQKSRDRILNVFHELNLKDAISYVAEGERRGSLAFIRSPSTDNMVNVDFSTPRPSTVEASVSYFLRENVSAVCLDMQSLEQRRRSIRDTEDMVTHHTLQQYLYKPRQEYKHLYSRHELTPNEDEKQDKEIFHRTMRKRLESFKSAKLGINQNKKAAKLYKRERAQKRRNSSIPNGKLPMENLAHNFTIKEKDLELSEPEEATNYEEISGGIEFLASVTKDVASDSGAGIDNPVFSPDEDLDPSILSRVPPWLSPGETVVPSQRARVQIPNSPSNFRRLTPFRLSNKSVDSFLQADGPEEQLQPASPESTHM
Outline: (§1)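 OK cells electroporated with rat or human NHE3 gene, loaded 30 min at room temperature with 5 μM BCECF-AM in NH4Cl-HEPES pH 7.4.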

Human NHE3 = target: T2, Human NHE3 (Homo sapiens, UniProt P48764); assay: Cell-based NHE3 activity under prompt conditions (OK cells, BCECF pH recovery), human NHE3; details: prompt conditions
T2 construct: expressed in transfected cells; host or cells: Opossum kidney (OK) cells (ATCC), electroporation
T2 sequence (P48764 26-834): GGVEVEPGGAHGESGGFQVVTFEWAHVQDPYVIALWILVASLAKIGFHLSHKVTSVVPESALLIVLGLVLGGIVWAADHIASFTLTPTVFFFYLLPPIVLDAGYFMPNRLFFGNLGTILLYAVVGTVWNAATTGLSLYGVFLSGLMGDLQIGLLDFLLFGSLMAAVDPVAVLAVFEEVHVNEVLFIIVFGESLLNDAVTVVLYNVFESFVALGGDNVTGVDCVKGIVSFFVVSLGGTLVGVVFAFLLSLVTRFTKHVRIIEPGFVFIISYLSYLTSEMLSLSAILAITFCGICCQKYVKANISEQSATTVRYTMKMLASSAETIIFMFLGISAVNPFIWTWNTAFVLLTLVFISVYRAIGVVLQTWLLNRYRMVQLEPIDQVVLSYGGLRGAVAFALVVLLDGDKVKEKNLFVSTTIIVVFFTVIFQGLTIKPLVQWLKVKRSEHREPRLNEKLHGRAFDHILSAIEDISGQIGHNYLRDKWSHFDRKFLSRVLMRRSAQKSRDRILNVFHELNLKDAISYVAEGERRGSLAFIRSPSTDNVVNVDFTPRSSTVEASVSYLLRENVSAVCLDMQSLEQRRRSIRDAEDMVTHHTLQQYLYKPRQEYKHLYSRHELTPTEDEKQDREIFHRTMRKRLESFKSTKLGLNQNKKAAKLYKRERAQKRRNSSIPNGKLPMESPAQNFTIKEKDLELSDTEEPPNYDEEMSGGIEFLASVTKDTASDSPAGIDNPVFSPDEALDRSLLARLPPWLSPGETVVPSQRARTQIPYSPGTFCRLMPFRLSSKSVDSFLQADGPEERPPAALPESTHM
Outline: as §1

[1] = tested on: absorption of sodium from the intestinal lumen; assay: Inhibition of intestinal sodium absorption: urinary sodium (uNa) 16 h after single oral dose in rats; type: in vivo, rat; details: oral gavage, 16 h post-dose
Outline: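 Eight-week-old Sprague-Dawley rats (n=6) given single oral gavage of compound or water vehicle in the late afternoon, then kept in metabolic cages with chow and water ad libitum. Urine collected over 16 h; sodium quantified by ion chromatography and expressed as % of vehicle mean, compared by one-way ANOVA with Dunnett's test.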

[2] = tested on: absorption of sodium from the intestinal lumen; assay: Fecal form score (FFS) 16 h after oral dose in rats; type: in vivo, rat; details: oral gavage, 16 h post-dose, scale 1-5
Outline: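 Eight-week-old Sprague-Dawley rats (n=6) dosed by oral gavage with compound or water vehicle between 4 and 5 PM, then housed in metabolic cages with food and water ad libitum. At 16 h, fecal form scored 1 (normal pellet) to 5 (liquid streams) by two observers; group mean reported.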

[3] = tested on: phosphorus and calcium levels in the urine of rats; assay: Urinary excretion of phosphate and calcium in rats (16 h overnight urine); type: in vivo, rat; details: rats, oral gavage, 16 h post-dose

Compound | Prompt Rat NHE3 pIC50 (Rat NHE3) | Prompt Human NHE3 pIC50 (Human NHE3) | Urine Na % of control ([1]; dose 1 mg/kg) [%] | Urine Na % of control ([1]; dose 3 mg/kg) [%] | Urine Na % of control ([1]; dose 10 mg/kg) [%] | Fecal Form Score average ([2]; dose 1 mg/kg) | Fecal Form Score average ([2]; dose 3 mg/kg) | Fecal Form Score average ([2]; dose 10 mg/kg) | Urine P % of control ([3]; dose 1 mg/kg) [%] | Urine P % of control ([3]; dose 3 mg/kg) [%] | Urine P % of control ([3]; dose 10 mg/kg) [%] | IC50 (Rat NHE3; read-out: Prompt Rat NHE3 pIC50 (converted)) [nM] | Urine Na % of control ([1]; dose 8 mg/kg) [%] | Fecal Form Score average ([2]; dose 8 mg/kg) | Urine P % of control ([3]; dose 8 mg/kg) [%]
CN1Cc2c(Cl)cc(Cl)cc2[C@H](c2cccc(S(=O)(=O)NCCOCCOCCNC(=O)NCCN(CCNC(=O)NCCOCCOCCNS(=O)(=O)c3cccc([C@@H]4CN(C)Cc5c(Cl)cc(Cl)cc54)c3)CCNC(=O)NCCOCCOCCNS(=O)(=O)c3cccc([C@@H]4CN(C)Cc5c(Cl)cc(Cl)cc54)c3)c2)C1 [compound 76] | 5.60 | 6.40 | 58 | 40 | 12 | 1 | 2 | 3 | 96 | 89 | 61 | – | – | – | –
CN1Cc2c(Cl)cc(Cl)cc2[C@H](c2cccc(S(=O)(=O)NCCOCCOCCNC(=O)NCCCN(CCCNC(=O)NCCOCCOCCNS(=O)(=O)c3cccc([C@@H]4CN(C)Cc5c(Cl)cc(Cl)cc54)c3)CCCNC(=O)NCCOCCOCCNS(=O)(=O)c3cccc([C@@H]4CN(C)Cc5c(Cl)cc(Cl)cc54)c3)c2)C1 [compound 77] | 6.25 | 7.35 | 80 | 36 | 17 | 2 | 2 | 4 | 82 | 79 | 41 | – | – | – | –
CN1Cc2c(Cl)cc(Cl)cc2[C@H](c2cccc(S(=O)(=O)NCCOCCOCCNC(=O)CC(O)(CC(=O)NCCOCCOCCNS(=O)(=O)c3cccc([C@@H]4CN(C)Cc5c(Cl)cc(Cl)cc54)c3)C(=O)NCCOCCOCCNS(=O)(=O)c3cccc([C@@H]4CN(C)Cc5c(Cl)cc(Cl)cc54)c3)c2)C1 [compound 78] | 6.00 | 6.50 | – | – | 53 | – | – | 2 | – | – | 39 | – | – | – | –
CN1Cc2c(Cl)cc(Cl)cc2[C@H](c2cccc(S(=O)(=O)NCCOCCOCCOCCNC(=O)CCN(CCC(=O)NCCOCCOCCOCCNS(=O)(=O)c3cccc([C@@H]4CN(C)Cc5c(Cl)cc(Cl)cc54)c3)CCC(=O)NCCOCCOCCOCCNS(=O)(=O)c3cccc([C@@H]4CN(C)Cc5c(Cl)cc(Cl)cc54)c3)c2)C1 [compound 79] | – | 7.20 | 65 | 44 | 17 | 1 | 2 | 3 | 109 | 81 | 33 | 316 | – | – | –
CN1Cc2c(Cl)cc(Cl)cc2[C@H](c2cccc(S(=O)(=O)NCCOCCOCCNC(=O)CCN(CCC(=O)NCCOCCOCCNS(=O)(=O)c3cccc([C@@H]4CN(C)Cc5c(Cl)cc(Cl)cc54)c3)CCC(=O)NCCOCCOCCNS(=O)(=O)c3cccc([C@@H]4CN(C)Cc5c(Cl)cc(Cl)cc54)c3)c2)C1 [compound 80] | 5.50 | 6.93 | 66 | 55 | 9 | 1 | 2 | 3 | 70 | 39 | 21 | – | – | – | –
CN1Cc2c(Cl)cc(Cl)cc2[C@H](c2cccc(S(=O)(=O)NCCOCCOCCNC(=O)CN(CCN(CC(=O)O)CC(=O)NCCOCCOCCNS(=O)(=O)c3cccc([C@@H]4CN(C)Cc5c(Cl)cc(Cl)cc54)c3)CC(=O)O)c2)C1 [compound 81] | 7.90 | 7.90 | – | – | 11 | – | – | 2 | – | – | 42 | – | – | – | –
CN1Cc2c(Cl)cc(Cl)cc2[C@H](c2cccc(S(=O)(=O)NCCOCCOCCNC(=O)NCCN(CCNC(=O)NCCOCCOCCNS(=O)(=O)c3cccc([C@@H]4CN(C)Cc5c(Cl)cc(Cl)cc54)c3)C(=O)CCCCCCCCCCC(=O)N(CCNC(=O)NCCOCCOCCNS(=O)(=O)c3cccc([C@@H]4CN(C)Cc5c(Cl)cc(Cl)cc54)c3)CCNC(=O)NCCOCCOCCNS(=O)(=O)c3cccc([C@@H]4CN(C)Cc5c(Cl)cc(Cl)cc54)c3)c2)C1 [compound 83] | <5.00 | <5.00 | – | – | 82 | – | – | 1 | – | – | 59 | – | – | – | –
CN1Cc2c(Cl)cc(Cl)cc2[C@H](c2cccc(S(=O)(=O)NCCOCCOCCOCCNC(=O)CC(CC(=O)NCCOCCOCCOCCNS(=O)(=O)c3cccc([C@@H]4CN(C)Cc5c(Cl)cc(Cl)cc54)c3)C(=O)NCCOCCOCCOCCNS(=O)(=O)c3cccc([C@@H]4CN(C)Cc5c(Cl)cc(Cl)cc54)c3)c2)C1 [compound 84] | 7.50 | 7.70 | – | – | – | – | – | – | – | – | – | – | 7 | 3 | 47
CN1Cc2c(Cl)cc(Cl)cc2[C@H](c2cccc(S(=O)(=O)NCCOCCOCCNC(=O)CN(CCOCCOCCN(CC(=O)NCCOCCOCCNS(=O)(=O)c3cccc([C@@H]4CN(C)Cc5c(Cl)cc(Cl)cc54)c3)CC(=O)NCCOCCOCCNS(=O)(=O)c3cccc([C@@H]4CN(C)Cc5c(Cl)cc(Cl)cc54)c3)CC(=O)NCCOCCOCCNS(=O)(=O)c3cccc([C@@H]4CN(C)Cc5c(Cl)cc(Cl)cc54)c3)c2)C1 [compound 85] | 5.80 | 6.10 | – | – | 92 | – | – | 1 | – | – | 85 | – | – | – | –
CN1Cc2c(Cl)cc(Cl)cc2[C@H](c2cccc(S(=O)(=O)NCCOCCOCCNC(=O)NCCN(CCNC(=O)NCCOCCOCCNS(=O)(=O)c3cccc([C@@H]4CN(C)Cc5c(Cl)cc(Cl)cc54)c3)C(=O)NCCCCCCCCCCCCNC(=O)N(CCNC(=O)NCCOCCOCCNS(=O)(=O)c3cccc([C@@H]4CN(C)Cc5c(Cl)cc(Cl)cc54)c3)CCNC(=O)NCCOCCOCCNS(=O)(=O)c3cccc([C@@H]4CN(C)Cc5c(Cl)cc(Cl)cc54)c3)c2)C1 [compound 86] | 5.80 | 5.90 | – | – | 87 | – | – | 1 | – | – | 89 | – | – | – | –
O=C(NCCCCNC(=O)NCCOCCOCCNS(=O)(=O)c1ccc(O[C@H]2c3cc(Cl)cc(Cl)c3C[C@@H]2N2CC[C@@H](O)C2)cc1)NCCOCCOCCNS(=O)(=O)c1ccc(O[C@H]2c3cc(Cl)cc(Cl)c3C[C@@H]2N2CC[C@@H](O)C2)cc1 [compound 87] | <5.00 | 8.20 | – | 54 | – | – | 1 | – | – | 29 | – | – | – | – | –
